Reference: patent US10875876B2, “Cyclized sulfamoylarylamide derivatives and the use thereof as medicaments for the treatment of hepatitis B” (priority 2015, dated 2020)
Read-outs that look alike come from different tables or passages of the source.

Columns and labels:
[1] = Cytotoxicity in HepG2 cells, Resazurin assay; details: human, HepG2 cells, TOX-HepG2-4 d CC50 (μM), HepG2 cells incubated for 4 days, viability by Resazurin assay
HBV = assay: anti HBV activity, HepG2.117 cell line, intracellular HBV DNA by realtime PCR; assay type: cell-based; details: HepG2.117 cell line (Tet-off), 3 days of treatment, intracellular HBV DNA quantified by realtime PCR, read-out: HBV-AVE-HepG2.117 EC50
How it was run: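 HepG2.117 cells, a Tet-off line that replicates HBV without doxycycline, were induced and then treated in duplicate with serially diluted compound. After 3 days, intracellular HBV DNA was quantified by real-time PCR with an HBV-specific primer set and probe.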

[2] = Hepatitis B virus, HepG2.117, 72 h

Structure (SMILES)	CC50 at 4 days [1] [µM]	melting point [°C]	EC50 (HBV; [2]) [nM]	EC50 (HBV) [nM]
Cn1cc2c(c1C(=O)Nc1ccc(F)c(F)c1)OCC(C)(Cc1ccnc(Cl)c1)NS2(=O)=O (stereo not drawn) [Compound 190, 3-[(2-chloro-4-pyridyl)methyl]-N-(3,4-difluorophenyl)-3,7-dimethyl-1,1-dioxo-2,4-dihydropyrrolo[3,4-b][1,4,5]oxathiazepine-6-carboxamide]	> 25	225	6	–
Cn1cc2c(c1C(=O)Nc1ccc(F)c(C#N)c1)OC[C@@H](C(C)(C)O)NS2(=O)=O [Compound 107, (3S)—N-(3-cyano-4-fluoro-phenyl)-3-(1-hydroxy-1-methyl-ethyl)-7-methyl-1,1-dioxo-3,4-dihydro-2H-pyrrolo[3,4-b][1,4,5]oxathiazepine-6-carboxamide]	> 25	259.8	80	–
Cn1cc2c(c1C(=O)Nc1ccc(F)c(F)c1)OCC(C)(c1cnccn1)NS2(=O)=O (single isomer, unassigned) [Compound 145a, N-(3,4-difluorophenyl)-3,7-dimethyl-1,1-dioxo-3-pyrazin-2-yl-2,4-dihydropyrrolo[3,4-b][1,4,5]oxathiazepine-6-carboxamide]	> 25	199.4	–	14
Cn1cc2c(c1C(=O)Nc1ccc(F)c(F)c1)OCC(C)(Cc1ccc(Br)nc1)NS2(=O)=O (stereo not drawn) [Compound 171, 3-[(6-bromo-3-pyridyl)methyl]-N-(3,4-difluorophenyl)-3,7-dimethyl-1,1-dioxo-2,4-dihydropyrrolo[3,4-b][1,4,5]oxathiazepine-6-carboxamide]	> 25	259.2	8	–
Cc1cccc(C2(C)COc3c(cn(C)c3C(=O)Nc3ccc(F)c(F)c3)S(=O)(=O)N2)n1 (single isomer, unassigned) [Compound 168a, N-(3,4-difluorophenyl)-3,7-dimethyl-3-(6-methyl-2-pyridyl)-1,1-dioxo-2,4-dihydropyrrolo[3,4-b][1,4,5]oxathiazepine-6-carboxamide]	> 25	221.9	–	> 125
Cn1cc2c(c1C(=O)Nc1ccc(F)c(F)c1)OCC(C)(c1ncco1)NS2(=O)=O (single isomer, unassigned) [Compound 160a, N-(3,4-difluorophenyl)-3,7-dimethyl-3-oxazol-2-yl-1,1-dioxo-2,4-dihydropyrrolo[3,4-b][1,4,5]oxathiazepine-6-carboxamide]	> 25	239.5	–	77
Cn1ccnc1CC1(C)COc2c(cn(C)c2C(=O)Nc2ccc(F)c(C(F)F)c2)S(=O)(=O)N1 (stereo not drawn) [Compound 187, N-[3-(difluoromethyl)-4-fluoro-phenyl]-3,7-dimethyl-3-[(1-methylimidazol-2-yl)methyl]-1,1-dioxo-2,4-dihydropyrrolo[3,4-b][1,4,5]oxathiazepine-6-carboxamide]	> 25	282.8	3	–
Cn1cc2c(c1C(=O)Nc1ccc(F)c(C#N)c1)OC[C@H](C(C)(C)O)NS2(=O)=O [Compound 106, (3R)—N-(3-cyano-4-fluoro-phenyl)-3-(1-hydroxy-1-methyl-ethyl)-7-methyl-1,1-dioxo-3,4-dihydro-2H-pyrrolo[3,4-b][1,4,5]oxathiazepine-6-carboxamide]	> 25	260.1	8	–
Cn1cc2c(c1C(=O)Nc1ccc(F)c(F)c1)C=CC(C(F)(F)F)NS2(=O)=O (stereo not drawn) [Compound 8, N-(3,4-difluorophenyl)-7-methyl-1,1-dioxo-3-(trifluoromethyl)-2,3-dihydropyrrolo[3,4-f]thiazepine-6-carboxamide]	> 25	245.6	47	–
